Laboratory results published in patent publication US12673944B2, “Compounds having inhibitory activity against glucosylceramide synthase or pharmaceutically acceptable salt thereof, processes for preparing the same, and pharmaceutical compositions comprising the same” (YUHAN CORPORATION, priority 2019, dated 2026).

Tests used:
[1] = test system: GM1 production in Jurkat cells; test: cells; format: cell-based; conditions: Homo sapiens, Jurkat, 72 h
[2] = molecular target: T1, glucosylceramide synthase (GCS) (Homo sapiens, UniProt Q16739); test: GCS enzyme inhibition assay (A549 cell lysate, NBD C6-ceramide, HPLC fluorescence); format: biochemical; conditions: inhibitory activity against GCS, 37° C., 90 minutes
T1 construct: The obtained supernatant was used; host or cells: A549 cells (lysate supernatant after sonication)
T1 sequence (Q16739 1-394): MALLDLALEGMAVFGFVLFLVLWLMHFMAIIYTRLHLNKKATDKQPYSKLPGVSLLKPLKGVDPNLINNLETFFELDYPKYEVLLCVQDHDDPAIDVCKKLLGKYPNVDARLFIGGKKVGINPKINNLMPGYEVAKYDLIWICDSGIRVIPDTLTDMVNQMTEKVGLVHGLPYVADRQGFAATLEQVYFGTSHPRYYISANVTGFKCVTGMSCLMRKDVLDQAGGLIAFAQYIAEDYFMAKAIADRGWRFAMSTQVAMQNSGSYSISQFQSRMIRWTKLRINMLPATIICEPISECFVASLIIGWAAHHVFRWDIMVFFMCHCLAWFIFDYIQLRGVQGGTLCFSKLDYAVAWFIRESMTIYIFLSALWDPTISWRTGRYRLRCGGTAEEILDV
Procedure, shortened: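 A549 cell lysate (50 mM HEPES pH 7.3) served as GCS source; reactions ran 90 min at 37° C, were stopped with chloroform/methanol and lipids extracted. Activity taken as GlcCer/(Cer+GlcCer) peak area, normalised between DMSO and ibiglustat controls.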

Compound	IC50 [1] [nM]	IC50 [2] [nM]
O=C(NC1CCOc2cc(-c3cccc(S(=O)(=O)N4CCCC4)c3)ccc21)O[C@@H]1CN2CCC1CC2 (stereo partly drawn) [Example 60, (S)-quinuclidin-3-yl (7-(3-(pyrrolidin-1-ylsulfonyl)phenyl)chroman-4-yl)carbamate]	16.5	2.39
COc1cc2c(cc1-c1cccc(Cl)c1)OCC(C)(C)C2NC(=O)O[C@@H]1CN2CCC1CC2 (stereo partly drawn) [Example 351, (S)-quinuclidin-3-yl (7-(3-chlorophenyl)-6-methoxy-3,3-dimethylchroman-4-yl)carbamate]	1.7	0.45
CC1(C)COc2cc(-c3cccc(Cl)c3)c(F)cc2C1NC(=O)O[C@@H]1CN2CCC1CC2 (stereo partly drawn) [Example 332, (S)-quinuclidin-3-yl (6-fluoro-7-(3-chlorophenyl)-3,3-dimethylchroman-4-yl)carbamate]	0.9	0.39
CC1(C)COc2cc(/C=C/c3ccc(F)cc3)ccc2C1NC(=O)O[C@@H]1CN2CCC1CC2 (stereo partly drawn) [Example 293, (S)-quinuclidin-3-yl (7-((E)-4-fluorostyryl)-3,3-dimethylchroman-4-yl)carbamate]	3	1.23
Cc1ccc(-c2ccc3c(c2)OCC(C)(C)C3NC(=O)O[C@@H]2CN3CCC2CC3)cc1C#N (stereo partly drawn) [Example 199, (S)-quinuclidin-3-yl (7-(3-cyano-4-methylphenyl)-3,3-dimethylchroman-4-yl)carbamate]	3.63	0.51
CC1(C)COc2cc(-c3cccc(OC(F)(F)F)c3)ccc2C1NC(=O)O[C@@H]1CN2CCC1CC2 (stereo partly drawn) [Example 105, (S)-quinuclidin-3-yl (3,3-dimethyl-7-(3-(trifluoromethoxy)phenyl)chroman-4-yl)carbamate]	1.41	1.11
O=C(NC1CCOc2ccc(-c3ccc(F)cc3)cc21)O[C@@H]1CN2CCC1CC2 (stereo partly drawn) [Example 85, (S)-quinuclidin-3-yl (6-(4-fluorophenyl)chroman-4-yl)carbamate]	222	9.67
CC1(C)COc2cc(-c3ccc(Cl)cc3Cl)ccc2C1NC(=O)O[C@@H]1CN2CCC1CC2 (stereo partly drawn) [Example 230, (S)-quinuclidin-3-yl (7-(2,4-dichlorophenyl)-3,3-dimethylchroman-4-yl)carbamate]	0.8	0.86
O=C(NC1CCOc2cc(-c3cccc(Cl)c3)ccc21)O[C@@H]1CN2CCC1CC2 (stereo partly drawn) [Example 2, (S)-quinuclidin-3-yl (7-(3-chlorophenyl)chroman-4-yl)carbamate]	3.47	0.7
O=C(NC1CCOc2cc(-c3ccc4c(c3)COC4)ccc21)O[C@@H]1CN2CCC1CC2 (stereo partly drawn) [Example 61, (S)-quinuclidin-3-yl (7-(1,3-dihydroisobenzofuran-5-yl)chroman-4-yl)carbamate]	40.1	1.36
O=C(NC1CCOc2cc(-c3ccc4ccncc4c3)ccc21)O[C@@H]1CN2CCC1CC2 (stereo partly drawn) [Example 57, (S)-quinuclidin-3-yl (7-(isoquinolin-7-yl)chroman-4-yl)carbamate]	36.6	3.52
CC1(C)COc2cc(-c3ccc(Cl)cc3)ccc2C1NC(=O)O[C@@H]1CN2CCC1CC2 (stereo partly drawn) [Example 213, (S)-quinuclidin-3-yl (7-(4-chlorophenyl)-3,3-dimethylchroman-4-yl)carbamate]	0.03	0.78
CC1(C)COc2cc(-c3ccc(F)c(F)c3F)ccc2C1NC(=O)O[C@@H]1CN2CCC1CC2 (stereo partly drawn) [Example 217, (S)-quinuclidin-3-yl (3,3-dimethyl-7-(2,3,4-trifluorophenyl)chroman-4-yl)carbamate]	7.35	0.55
O=C(NC1CCOc2cc(-c3cncc4ccccc34)ccc21)O[C@@H]1CN2CCC1CC2 (stereo partly drawn) [Example 53, (S)-quinuclidin-3-yl (7-(isoquinolin-4-yl)chroman-4-yl)carbamate]	2.66	1.77
CC1(C)COc2cc(-c3cnn(Cc4ccccc4)c3)ccc2C1NC(=O)O[C@@H]1CN2CCC1CC2 (stereo partly drawn) [Example 180, (S)-quinuclidin-3-yl (7-(1-benzyl-1H-pyrazol-4-yl)-3,3-dimethylchroman-4-yl)carbamate]	3.42	0.44
COc1c(C)cc(-c2ccc3c(c2)OCC(C)(C)C3NC(=O)O[C@@H]2CN3CCC2CC3)cc1C (stereo partly drawn) [Example 255, (S)-quinuclidin-3-yl (7-(4-methoxy-3,5-dimethylphenyl)-3,3-dimethylchroman-4-yl)carbamate]	5.1	1.2
Cn1ncc2c(-c3ccc4c(c3)OCCC4NC(=O)O[C@@H]3CN4CCC3CC4)cccc21 (stereo partly drawn) [Example 51, (S)-quinuclidin-3-yl (7-(1-methyl-1H-indazol-4-yl)chroman-4-yl)carbamate]	4.99	1.02

Compound	IC50 [1] [nM]	IC50 [2] [nM]
CC1(C)COc2cc(-c3ccc(OCC(F)(F)F)nc3)ccc2C1NC(=O)O[C@@H]1CN2CCC1CC2 (stereo partly drawn) [Example 144, (S)-quinuclidin-3-yl (3,3-dimethyl-7-(6-(2,2,2-trifluoroethoxy)pyridin-3-yl)chroman-4-yl)carbamate]	1.2	0.17
CC1(C)COc2cc(-c3ccccn3)ccc2C1NC(=O)O[C@@H]1CN2CCC1CC2 (stereo partly drawn) [Example 266, (S)-quinuclidin-3-yl (3,3-dimethyl-7-(pyridin-2-yl)chroman-4-yl)carbamate]	26.9	4.07
CSc1cccc(-c2ccc3c(c2)C(NC(=O)O[C@@H]2CN4CCC2CC4)CCO3)c1 (stereo partly drawn) [Example 98, (S)-quinuclidin-3-yl (6-(3-(methylthio)phenyl)chroman-4-yl)carbamate]	525	14.9
O=C(NC1CCOc2cc(-c3cc(Cl)cc(Cl)c3)ccc21)O[C@@H]1CN2CCC1CC2 (stereo partly drawn) [Example 29, (S)-quinuclidin-3-yl (7-(3,5-dichlorophenyl)chroman-4-yl)carbamate]	12.4	2.28
O=C(NC1CCOc2cc(-c3cccc(F)c3)ccc21)O[C@@H]1CN2CCC1CC2 (stereo partly drawn) [Example 1, (S)-quinuclidin-3-yl (7-(3-fluorophenyl)chroman-4-yl)carbamate]	1.69	2.6
CC(C)c1ccc(-c2ccc3c(c2)OCC(C)(C)C3NC(=O)O[C@@H]2CN3CCC2CC3)cc1 (stereo partly drawn) [Example 174, (S)-quinuclidin-3-yl (7-(4-isopropylphenyl)-3,3-dimethylchroman-4-yl)carbamate]	1.37	0.35
COc1ccc(-c2ccc3c(c2)OCC(C)(C)C3NC(=O)O[C@@H]2CN3CCC2CC3)c(Cl)c1 (stereo partly drawn) [Example 119, (S)-quinuclidin-3-yl (7-(2-chloro-4-methoxyphenyl)-3,3-dimethylchroman-4-yl)carbamate]	1.25	0.65
O=C(NC1CCOc2cc(-c3ccc4c(c3)OC(F)(F)O4)ccc21)O[C@@H]1CN2CCC1CC2 (stereo partly drawn) [Example 36, (S)-quinuclidin-3-yl (7-(2,2-difluorobenzo[d][1,3]dioxol-5-yl)chroman-4-yl)carbamate]	11.1	1.53
COc1cc2c(cc1-c1ccc(OCC(C)C)cc1)OCC(C)(C)C2NC(=O)O[C@@H]1CN2CCC1CC2 (stereo partly drawn) [Example 366, (S)-quinuclidin-3-yl (7-(4-isobutoxyphenyl)-6-methoxy-3,3-dimethylchroman-4-yl)carbamate]	0.7	0.19
CC1(C)COc2cc(-c3cccc4ccccc34)ccc2C1NC(=O)O[C@@H]1CN2CCC1CC2 (stereo partly drawn) [Example 131, (S)-quinuclidin-3-yl (3,3-dimethyl-7-(naphthalen-1-yl)chroman-4-yl)carbamate]	1.21	1.02
CC1(C)COc2cc(-c3ccc4c(c3)CCCO4)ccc2C1NC(=O)O[C@@H]1CN2CCC1CC2 (stereo partly drawn) [Example 163, (S)-quinuclidin-3-yl (3′,3′-dimethyl-[6,7′-bichroman]-4′-yl)carbamate]	0.5	0.59
COc1ccc(Cl)c(-c2cc3c(cc2OC)C(NC(=O)O[C@@H]2CN4CCC2CC4)C(C)(C)CO3)c1 (stereo partly drawn) [Example 359, (S)-quinuclidin-3-yl (7-(2-chloro-5-methoxyphenyl)-6-methoxy-3,3-dimethylchroman-4-yl)carbamate]	2.4	0.62
O=C(NC1CCOc2ccc(-c3cccc(C(F)(F)F)c3)cc21)O[C@@H]1CN2CCC1CC2 (stereo partly drawn) [Example 92, (S)-quinuclidin-3-yl (6-(3-(trifluoromethyl)phenyl)chroman-4-yl)carbamate]	495	29.6
COc1ccc(-c2cc3c(cc2OC)C(NC(=O)O[C@@H]2CN4CCC2CC4)C(C)(C)CO3)c(C)c1 (stereo partly drawn) [Example 361, (S)-quinuclidin-3-yl (6-methoxy-7-(4-methoxy-2-methylphenyl)-3,3-dimethylchroman-4-yl)carbamate]	8.5	0.99
O=C(NC1CCOc2cc(-c3cccc(-c4ccccc4)c3)ccc21)O[C@@H]1CN2CCC1CC2 (stereo partly drawn) [Example 59, (S)-quinuclidin-3-yl (7-([1,1′-biphenyl]-3-yl)chroman-4-yl)carbamate]	2.22	0.3
O=C(NC1CCOc2cc(-c3cnn(Cc4ccccc4)c3)ccc21)O[C@@H]1CN2CCC1CC2 (stereo partly drawn) [Example 72, (S)-quinuclidin-3-yl (7-(1-benzyl-1H-pyrazol-4-yl)chroman-4-yl)carbamate]	12.8	0.92
